The values below come from US6921773B2, “Use of α-1AR subtype-selective drugs in patients with acute myocardial infarction” (Duke University, priority 1999, dated 2005).

Entries after “also recorded” stand apart in the source; their conditions may differ.

One data set relates to human mammary artery. Kind of data set: Phenylephrine-induced mammary artery contraction (isometric tension, organ chambers), with or without a1AR antagonists. Conditions: for Shift of phenylephrine dose response by antagonist: prazosin 10^-9 and 10^-8 mol/L, 5-MU/spiperone/BMY7378 10^-8 and 10^-7 mol/L; for Kb: read-out: Potency in inhibiting mammary artery contraction (pKB) (converted). An excerpt: Mammary arteries were immersed in cold oxygenated Krebs-Ringer bicarbonate solution (118.3 mmol/L NaCl, 4.7 mmol/L KCl, 1.2 mmol/L MgSO4, 1.2 mmol/L KHPO4, […], 25 mmol/L NaHCO3, […], […]), cleaned of loose connective tissue, cut into 4-5 mm long rings, and suspended for isometric tension recording in organ chambers. One stirrup was anchored to the chamber and the other connected to a strain gauge (FT-102) for measurement of isometric force (MacLab, CB Sciences; Milford, Mass.). All concentration effect curves were performed at optimum resting tone (˜3 g in pilot studies). Contractile response to 60 mmol/L KCI was performed; this determined vessel viability and facilitated normalization of phenylephrine response across vessel rings. Phenylephrine dose-response curves were generated (10^−4-10^−9mol/L) in ½ log order concentrations in the absence/presence of competitive a1AR antagonists. […] Antagonist potency was expressed as the dissociation constant (KB) determined from pKB=log[B]log(DR-1), where [B] is antagonist concentration and DR the dose ratio produced by antagonist. Dose response curves were analyzed using DOSE RESPONSE software (MacLab, CB Sciences).

The subject of a further data set is a1AR subtypes. As to the kind of experiment: Competition analysis against [125I]HEAT in human vessel membranes. It counts as binding. Conditions: mammary, renal, splenic arteries, and vena cava; n=3 experiments per vessel. As for the experimental part: (§1) Vessels were weighed, lumen diameter measured, pulverized under liquid nitrogen, and suspended in cold lysis buffer (5 mmol/L Tris HCl and 5 mmol/L EDTA, pH 7.4) with protease inhibitors.^14 After lysate preparation, membranes were resuspended in cold binding buffer (150 mmol/L NaCl, 50 mmol/L Tris·HCl, 5 mmol/L EDTA, with protease inhibitors, pH 7.4) as previously described;^14 protein concentration was determined using the bicinchoninic acid method (Pierce, Rockford, Ill.). Full saturation binding isotherms were performed in selected human vessels (aorta, mammary artery, saphenous vein) in 250 μl binding buffer (20-60 μg vessel membrane protein) using the α1-adrenergic antagonist [^125I]HEAT(2-[b-(hydroxy-3[^125I]iodophenyl)ethyl-aminomethyl]-tetralone; DuPont-NEN; Boston, Mass.) as previously described.^14 To measure total a1AR density in all vessels, a saturating concentration (300 pmol/L) of the [^125I]HEAT was used.

In another data set the target is a1AR. Kind of data set: [125I]HEAT saturation binding isotherms in human vessel membranes. Conditions: n=2-4. As for the experimental part:
as §1

For data set [1] the following is noted: elderly patients; compared with alfuzosin (non-selective); cited from earlier work.
Where [2] appears, read: Homo sapiens, phenylephrine dose response curves, mean±SEM.

`COc1ccccc1N1CCN(CCCNc2c(C)c(=O)n(C)c(=O)n2C)CC1` [5-MU]: the “Potency in inhibiting mammary artery contraction (pKB)” value in the data set on human mammary artery (phenylephrine dose response curves, mean±SEM) is reported as 8.4±0.63. Besides, the “Shift of phenylephrine dose response by antagonist” value (“Shift” for short) in the data set with human mammary artery was “concentration dependent shift in potency without reducing maximum response”. Moreover, in the data set with a1AR subtypes, the “Number of binding sites in competition analysis” value is on record as “binds to two sites”.
Consider `COc1ccccc1N1CCN(CCN2C(=O)CC3(CCCC3)CC2=O)CC1` [BMY7378], for which the “Shift” value in the data set with human mammary artery is “does not produce a significant shift; also recorded: does not produce a shift in dose response”.
Turning to `CNC[C@H](O)c1cccc(O)c1` [Phenylephrine], the EC50 in the data set with human mammary artery (Homo sapiens, 10 mammary arteries, mean±SEM, read-out: pD2 of isometric contraction (converted)) was 1000 nM.
By Kd is commonly meant the equilibrium constant for the complex coming apart. Turning to `O=C1c2ccccc2CCC1CNCCc1ccc(O)c(I)c1` (stereo not shown) [^125I-HEAT, 2-[b-(hydroxy-3[^125I]iodophenyl)ethyl-aminomethyl]-tetralone], the Kd on a1AR (aorta) is 0.13 ± 0.0002 nM; at a1AR (mammary artery) it was 0.13 ± 0.0031 nM; on a1AR (saphenous vein) it was 0.13 ± 0.00065 nM.
`COc1cc2nc(N3CCN(C(=O)c4ccco4)CC3)nc(N)c2cc1OC` [prazosin]: the Kb in the data set with human mammary artery (setting [2]) was 0.631 nM. The “Shift” value with human mammary artery was “concentration dependent shift in potency without reducing maximum response”.
Taken in the same sequence, the figures for `O=C(CCCN1CCC2(CC1)C(=O)NCN2c1ccccc1)c1ccc(F)cc1` [spiperone] were 2.51 nM and “concentration dependent shift in potency without reducing maximum response”.
Take `CCOc1ccccc1OCCN[C@H](C)Cc1ccc(OC)c(S(N)(=O)=O)c1` [tamsulosin]: the Blood pressure perturbation result in data set [1] is given as “less blood pressure perturbation”.
